Laboratory results as given in patent US20230039836A1, “AROMATIC SULPHONAMIDES DERIVATIVES THAT INHIBITS PDI A3, THEIR SYNTHESIS AND USE” (Uniwersytet Jagiellonski, priority 2020, published 2023).
In brackets after ≈: the same amount, converted by molar mass. Several values for one entry are separate records, joined by “and”; a condition that tells them apart may be missing. Identical values can stand only once. Like-named read-outs stand apart in the source and are kept apart here.

Legend:
[1] = tested on: Lewis Lung Carcinoma (LLC); assay: Murine model of Lewis Lung Carcinoma; assay type: in vivo, mice; settings: for Tumor volume average±stdev, day 10 / Tumor volume average±stdev, day 12 / Tumor volume average±stdev, day 14 / Tumor volume average±stdev, day 16 / Tumor volume average±stdev, day 17 / Individual tumor volumes, day 10 / Individual tumor volumes, day 12 / Individual tumor volumes, day 14 / Individual tumor volumes, day 16 / Individual tumor volumes, day 17: C57BL/6 mice, LLC s.c.; for Tumor volume average±stdev, day 10 / Tumor volume average±stdev, day 12 / Tumor volume average±stdev, day 14 / Tumor volume average±stdev, day 16 / Tumor volume average±stdev, day 17: 5 animals; for Individual tumor volumes, day 10 / Individual tumor volumes, day 12 / Individual tumor volumes, day 14 / Individual tumor volumes, day 16 / Individual tumor volumes, day 17: single animals; for Anti-cancer activity in vivo: LLC model, Tables 6 and 7
Experimental: To confirm anticancer activity of selected compounds of invention, PDI A1-inhibitors in vivo, selected compounds of invention were tested in the murine model of Lewis Lung Carcinoma (LLC). The Lewis Lung Carcinoma (LLC) cell line was obtained from the ATCC collection and was cultured in a humidified atmosphere of 5% CO2 at 37° using Dulbecco’s modified Eagle’s medium (DMEM) that contained 10% bovine serum (Sigma). Female (6-8 weeks old) C57BL/6 mice (purchased from Envigo RMS. BV., Nederland) were acclimated for one week and were fed with animal chow and water ad libitum. The C57BL/6 mice were injected s.c. with 0.5 × 10^5 LLC cells per mice in 100 µL PBS. Compounds were dissolved in DMSO and then 0.9% NaCl (DMSO final concentration 1%) were added. In each treatment group, i.p. injections of 100 µl compound were started on 1 day after tumor inoculation. Control animals injected with equal volume of 0.9% NaCl with 1% DMSO administered in the same schedule as other groups. Tumor larger radius (a) and smaller radius (b) were measured by calipers. The tumor volume (Tv) was calculated according the following formulaTv = V=4 • ab2/3. The mice in control group were sacrificed 17 days after tumor establishment. Tumor tissues were dissected, weighed and frozen in OCT compound.

[2] = tested on: Caco-2; assay: Sulforhodamine B antiproliferative assay, 72 h; assay type: cell-based, human; settings: Homo sapiens, Caco-2; normal (21% of oxygen), 72-hour exposition
Experimental: In the experiment, cells were seeded on 96-well plates (Sarstedt, Germany) in appropriate culture medium at a density of 10^5 cells/mL 24 h before adding the tested compounds. Cells were treated with each compound in four concentrations in the range 0.1-100 ug/mL. […] Briefly, cells were fixed with 50 µL/well of 50% (w/v) trichloroacetic acid (Avantor Performance Materials, Gliwice, Poland). After 1 h incubation, plates were washed several times with tap water and 50 µL of 0.4% (w/v) solution of sulforhodamine B (Sigma-Aldrich, Germany) in 1% (v/v) acetic acid (Avantor Performance Materials, Gliwice, Poland) was added to each well. After 30 min incubation at room temperature, unbound dye was washed out with 1% (v/v) acetic acid, whereas bound dye was solubilized with 10 mM unbuffered TRIS (Avantor Performance Materials, Gliwice, Poland) solution. […] After additional 30 min, absorbance was read using a Biotek Hybrid H4 reader (BioTek Instruments, USA) at 540 nm wavelength.

[3] = tested on: MCF-7; assay: Sulforhodamine B antiproliferative assay, 72 h, normal and hypoxia; assay type: cell-based, human; settings: Homo sapiens, MCF7, 72-hour exposition
Experimental: (§1) Anticancer activity of PDI A1-inhibitors has been also tested in vitro in antiproliferative essay in normoxic and hypoxic conditions as well in estrogen-stimulated cancer cells. In the experiment, cells were seeded on 96-well plates (Sarstedt, Germany) in appropriate culture medium at a density of 10^5 cells/mL 24 h before adding the tested compounds. Cells were treated with each compound in four concentrations in the range 0.1-100 ug/mL. […] After 72 h of compound treatment at 37° C., 5 % CO2 humid atmosphere and in wo different oxygen level conditions: 21% - normal and <1% - hypoxia. In some experiments, the MDA-MB-231 and MCF-7 cells were seeded with or without 200 nM estradiol and after 24 h the tested compounds were added. A previously described sulforhodamine B antiproliferative assay was used with minor modifications (Skehan P et al., 1990). Briefly, cells were fixed with 50 µL/well of 50% (w/v) trichloroacetic acid (Avantor Performance Materials, Gliwice, Poland). After 1 h incubation, plates were washed several times with tap water and 50 µL of 0.4% (w/v) solution of sulforhodamine B (Sigma-Aldrich, Germany) in 1% (v/v) acetic acid (Avantor Performance Materials, Gliwice, Poland) was added to each well. After 30 min incubation at room temperature, unbound dye was washed out with 1% (v/v) acetic acid, whereas bound dye was solubilized with 10 mM unbuffered TRIS (Avantor Performance Materials, Gliwice, Poland) solution. The entire procedure was performed using a BioTek EL-406 washing station (BioTek Instruments, USA). After additional 30 min, absorbance was read using a Biotek Hybrid H4 reader (BioTek Instruments, USA) at 540 nm wavelength. MTT assay was used alternatively for HL-60 cell line and in the experiment in which estrogens are added (specified in the table legend). Absorbance was measured using a Biotek Hybrid H4 reader at 570 nm wavelength for MTT assay.
(§2) Compounds at each concentration were tested in triplicate in a single experiment and each experiment was repeated at least three times independently.
(§3) Results of in vitro antiproliferative effects are shown in Table 3 and Table 4 and are presented as mean IC50 ± SD calculated using the Prolab-3 system based on Cheburator 0.4 software.

[4] = tested on: MDA-MB-231; assay: as above; assay type: cell-based, human; settings: Homo sapiens, MDA-MB-231, 72-hour exposition
Experimental: as §1, §2, §3

[5] = molecular target: T1, PDI A1 (Homo sapiens, UniProt P07237); assay: Insulin turbidometric assay, inhibition of PDI A1; assay type: biochemical; settings: insulin reduction, turbidity at 650 nm, 60 min incubation at 37° C.; read-out: Inhibition of PDI A1 (EC 50)
T1 construct: purchased Mybiosource; host or cells: E. coli
Outline: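 E. coli-expressed recombinant PDIA1 (10 ug/ml) preincubated with compound 60 min at 37 °C in phosphate buffer pH 7.6, 1 mM EDTA, DTT. Reaction started with insulin (0.15 mM final) and DTT (0.174 mM final). Insulin-reduction turbidity recorded at 650 nm over 120 s against PDI-free reference.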

[6] = tested on: HT-29; assay: Sulforhodamine B antiproliferative assay, 72 h; assay type: cell-based, human; settings: Homo sapiens, HT-29; normal (21% of oxygen), 72-hour exposition
Experimental: as §1, §2, §3

[7] = tested on: arterial thrombosis, right common carotid artery; assay: Rat model of arterial thrombosis; assay type: in vivo; settings: Wistar rats, FIG. 6, dose as low as
Experimental: To confirm antithrombotic activity of compounds of invention, inhibitors of PDIA1, pharmacological activity of selected compounds was tested in vivo in the rat model of arterial thrombosis . Wistar rats were anaesthetized with pentobarbital (40 mg/kg, i.p.) and placed in a supine position on a heated (37° C.) operating table. Arterial thrombosis was induced by electrical stimulation of the right common carotid artery, as previously described (Kramkowski et al., 2012). Briefly, the anode, a stainless steel L-shaped wire, was inserted under the artery and connected to a constant current generator. The cathode was attached subcutaneously to the hind limb. The artery was stimulated (1 mA) for 10 min. Fifty-five minutes after the beginning of stimulation, the segment of the common carotid artery containing the formed thrombus was dissected and opened lengthwise, and the thrombus was completely removed and air-dried at room temperature for 24 h. Thrombus was then weighed in a blinded manner.

[8] = hypoxia (<1% of oxygen), read-out: IC50 [µg/ml] MCF-7 hypoxia
[9] = normal (21% of oxygen), read-out: IC50 [µg/ml] MCF-7 normal
[10] = hypoxia (<1% of oxygen), read-out: IC50 [µg/ml] MDA-MB-231 hypoxia
[11] = normal (21% of oxygen), read-out: IC50 [µg/ml] MDA-MB-231 normal

T1 sequence (P07237 18-508, species assumed): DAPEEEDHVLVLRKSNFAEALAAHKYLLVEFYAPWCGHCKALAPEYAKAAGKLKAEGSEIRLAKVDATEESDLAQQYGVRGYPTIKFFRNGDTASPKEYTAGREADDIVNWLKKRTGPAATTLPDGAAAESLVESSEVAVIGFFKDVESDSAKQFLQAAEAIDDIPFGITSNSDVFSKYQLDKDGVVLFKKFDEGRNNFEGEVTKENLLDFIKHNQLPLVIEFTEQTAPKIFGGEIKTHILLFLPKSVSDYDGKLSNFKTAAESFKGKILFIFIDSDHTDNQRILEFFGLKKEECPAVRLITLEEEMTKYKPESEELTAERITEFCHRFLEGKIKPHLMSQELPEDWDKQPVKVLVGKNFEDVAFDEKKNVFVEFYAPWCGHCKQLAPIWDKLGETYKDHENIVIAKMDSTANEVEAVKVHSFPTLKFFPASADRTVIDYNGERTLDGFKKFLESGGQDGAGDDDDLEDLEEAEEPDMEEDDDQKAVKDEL

COC(=O)C1CN1S(=O)(=O)c1ccc(C)cc1 (stereo not drawn) [Compound C-3161, Methyl 1-(p-tolylsulfonyl)aziridine-2-carboxylate]
Tumor volume average±stdev, day 10 ([1]; 50 mg/kg i.p.): 105±144 mm3 | Tumor volume average±stdev, day 12 ([1]; 50 mg/kg i.p.): 172±240 mm3 | Tumor volume average±stdev, day 14 ([1]; 50 mg/kg i.p.): 345±377 mm3 | Tumor volume average±stdev, day 16 ([1]; 50 mg/kg i.p.): 380±446 mm3 | Tumor volume average±stdev, day 17 ([1]; 50 mg/kg i.p.): 368±393 mm3 | Individual tumor volumes, day 10 ([1]; 50 mg/kg i.p., 50 mg/kg): 258 mm3 and 0 mm3 (3×) and 266 mm3 | Individual tumor volumes, day 12 ([1]; 50 mg/kg i.p., 50 mg/kg): 496 mm3 and 0 mm3 (3×) and 365 mm3 | Individual tumor volumes, day 14 ([1]; 50 mg/kg i.p., 50 mg/kg): 829 mm3 and 254 mm3 and 0 mm3 (2×) and 642 mm3 | Individual tumor volumes, day 16 ([1]; 50 mg/kg i.p., 50 mg/kg): 980 mm3 and 199 mm3 and 0 mm3 (2×) and 719 mm3 | Individual tumor volumes, day 17 ([1]; 50 mg/kg i.p., 50 mg/kg): 946 mm3 and 476 mm3 and 0 mm3 (2×) and 419 mm3 | Anti-cancer activity in vivo [1]: possess anti-cancer activity in vivo | IC50 [2]: 3.5 ± 0.3 µg/mL (≈ 13.7 µM) | IC50 [3, 8]: 3.6 ± 0.3 µg/mL (≈ 14.1 µM) | IC50 [3, 9]: 3.6 ± 0.3 µg/mL (≈ 14.1 µM) | IC50 [4, 10]: 11.3 ± 10.6 µg/mL (≈ 44.3 µM) | IC50 [4, 11]: 9.9 ± 8.2 µg/mL (≈ 38.8 µM) | EC50 [5]: 5 µM | IC50 [6]: 28.4 ± 5 µg/mL (≈ 111 µM)

CCCCc1ccc(S(=O)(=O)N2CC2C(=O)OC)cc1 (stereo not drawn) [Compound C-3257, Methyl 1-(4-butylphenyl)sulfonylaziridine-2-carboxylate]
Tumor volume average±stdev, day 10 ([1]; 75 mg/kg i.p.): 66±147 mm3 | Tumor volume average±stdev, day 12 ([1]; 75 mg/kg i.p.): 208±287 mm3 | Tumor volume average±stdev, day 14 ([1]; 75 mg/kg i.p.): 462±264 mm3 | Tumor volume average±stdev, day 16 ([1]; 75 mg/kg i.p.): 686±108 mm3 | Tumor volume average±stdev, day 17 ([1]; 75 mg/kg i.p.): 1097±482 mm3 | Individual tumor volumes, day 10 ([1]; 75 mg/kg i.p., 75 mg/kg): 0 mm3 (4×) and 329 mm3 | Individual tumor volumes, day 12 ([1]; 75 mg/kg i.p., 75 mg/kg): 572 mm3 and 0 mm3 (3×) and 468 mm3 | Individual tumor volumes, day 14 ([1]; 75 mg/kg i.p., 75 mg/kg): 594 mm3 and 0 mm3 and 537 mm3 and 657 mm3 and 523 mm3 | Individual tumor volumes, day 16 ([1]; 75 mg/kg i.p., 75 mg/kg): 794 mm3 and 548 mm3 and 601 mm3 and 772 mm3 and 717 mm3 | Individual tumor volumes, day 17 ([1]; 75 mg/kg i.p., 75 mg/kg): 674 mm3 and 882 mm3 and 1016 mm3 (2×) and 986 mm3 | Anti-cancer activity in vivo [1]: possess anti-cancer activity in vivo | IC50 [2]: 9.8 ± 3.8 µg/mL (≈ 33 µM) | IC50 [3, 8]: 17.1 ± 7.4 µg/mL (≈ 57.5 µM) | IC50 [3, 9]: 20.8 ± 6.6 µg/mL (≈ 69.9 µM) | IC50 [4, 10]: 13.5 ± 4 µg/mL (≈ 45.4 µM) | IC50 [4, 11]: 9.9 ± 2.8 µg/mL (≈ 33.3 µM) | Dose at which effect on thrombus formation was significant and pronounced [7]: 0.03 µmol/kg | IC50 [6]: 23.8 ± 4.8 µg/mL (≈ 80 µM)
